These results are taken from patent US20030004175A1, “1,3-oxathiolane nucleoside analogues” (BioChem Pharma Inc., priority 1990, published 2003).

One data set concerns CEM cells. Description: Cytotoxicity, viable cell count by trypan blue exclusion, CEM cells. It counts as cell-based, human. The settings on record: 5 days at 37° C. As for the experimental part:
(§1) The cytotoxicites of the compounds of Example 2, the racemic compound (BCH-189; […] H9, JM, CEM, C8166 and U937. […] After incubation at 37° C. for 5 days, the viable cell count was determined by removing a sample of cell suspension and counting trypan blue excluding cells in a haemocytometer.

Another data set relates to JM cells. Description: Cytotoxicity, viable cell count by trypan blue exclusion, JM cells. The class given is cell-based. The settings on record: 5 days at 37° C. The procedure: as §1
Another data set relates to H9 cells. Description: Cytotoxicity, viable cell count by trypan blue exclusion, H9 cells. It counts as cell-based. The settings on record: 5 days at 37° C. As for the experimental part:
as §1

A further data set deals with U937 cells. Description: Cytotoxicity, viable cell count by trypan blue exclusion, U937 cells. It counts as cell-based. Particulars: 5 days at 37° C. The procedure:
as §1

The subject of a further data set is C8166 cells. Description: Cytotoxicity, viable cell count by trypan blue exclusion, C8166 cells. Particulars: 5 days at 37° C. The class given is cell-based, human. As for the experimental part: as §1
In data set [1] the test system is HIV-1 strain RF. Description: Antiviral activity by inhibition of formazan conversion, MT-4 cells infected with HIV-1 RF. It counts as cell-based. Particulars: Human immunodeficiency virus 1, MT4, Formazan assay, read-out: 50% Antiviral Activity. The procedure:
(§2) Antiviral activity of the compounds of Example 2 were determined against three strains of HIV-1 and one strain of HIV-2 in the following cell lines.
(§3) MT-4 cells, a human T-cell leukaemia cell line, infected with HIV-1 strain RF.
(§4) Antiviral activities in C8166, JM, and CEM cells were determined by inhibition of syncytium formation (Tochikura et al Virology, 164, 542-546) and in MT-4 cells by inhibition of formazan conversion (Baba et al; (1987) Biochem Biophys Res Commun., 142, 128-134; Mossman (1983) J. Immun Meth; 65, 55-57). Antiviral activities were also determined by analysing the amount of HIV p24 antigen synthesised in the presence and absence of enantiomers.

In the next data set the test system is HIV-2 strain ROD. Description: Antiviral activity by inhibition of syncytium formation, CEM cells infected with HIV-2 ROD. The class given is cell-based. Particulars: Human immunodeficiency virus 2, CCRF-CEM, read-out: 50% Antiviral Activity. The procedure:
as §2
(§5) CEM cells, a human T-lymphoblastoid cell line, infected with HIV-1 strains RF and U455, or HIV-2 strain ROD.
as §4

The test system of data set [2] is HIV-1 strain RF. Description: Antiviral activity by inhibition of syncytium formation, CEM cells infected with HIV-1 RF. The settings on record: Human immunodeficiency virus 1, CCRF-CEM, read-out: 50% Antiviral Activity. The class given is cell-based. As for the experimental part:
as §2, §5, §4

Another data set has as its system HIV-1 strain U455. Description: Antiviral activity by inhibition of syncytium formation, CEM cells infected with HIV-1 U455. It counts as cell-based. The settings on record: Human immunodeficiency virus 1, CCRF-CEM, read-out: 50% Antiviral Activity. The procedure:
as §2, §5, §4

Data set [3] deals with HIV-1 strain GB8. Description: Antiviral activity by inhibition of syncytium formation, JM cells infected with HIV-1 GB8. It counts as cell-based. The settings on record: Human immunodeficiency virus 1, read-out: 50% Antiviral Activity. The procedure: as §2
(§6) JM cells, a semi-mature T-cell line derived from a patient with lymphoblastic leukaemia, infected with HIV-1 strain GB8.
as §4

The test system of data set [4] is HIV-1 strain RF. Description: Antiviral activity by inhibition of syncytium formation, C8166 cells infected with HIV-1 RF. It counts as cell-based. The settings on record: Human immunodeficiency virus 1, read-out: 50% Antiviral Activity. The procedure: as §2
(§7) C8166 cells, a human T-lymphoblastoid cell line, infected with HIV-1 strain RF.
as §4

Data set [5] relates to HIV-1 strain RF. Description: Inhibition of HIV p24 antigen synthesis, C8166 cells, strain RF. The class given is cell-based. Particulars: Human immunodeficiency virus 1, read-out: 50% Inhibition HIV p24 Synthesis. The procedure:
as §2, §7, §4

The subject of data set [6] is HIV-1 strain GB8. Description: Inhibition of HIV p24 antigen synthesis, JM cells, strain GB8. The class given is cell-based. Particulars: Human immunodeficiency virus 1, read-out: 50% Inhibition HIV p24 Synthesis. The procedure:
as §2, §6, §4

In data set [7] the test system is HIV-1 strain RF. Description: Inhibition of HIV p24 antigen synthesis, MT-4 cells, strain RF. It counts as cell-based. The settings on record: Human immunodeficiency virus 1, MT4, read-out: 50% Inhibition HIV p24 Synthesis. The procedure: as §2, §3, §4
The next data set has as its system CD4 cell lines. Description: Cytotoxicity (summary statement). The class given is cell-based. As for the experimental part:
Compounds for test were serially diluted from 100 μg/ml to 0.3 μg/ml (final concentrations) in 96 well microtitre plates. 3.6×10^4 cells were inoculated into each well of the plates including drug-free controls. After incubation at 37° C. for 5 days, the viable cell count was determined by removing a sample of cell suspension and counting trypan blue excluding cells in a haemocytometer.

Structures are written as SMILES. In brackets after ≈: the same amount, converted by molar mass.

For the molecule `Nc1ccn([C@@H]2CS[C@H](CO)O2)c(=O)n1` (racemic) [BCH-189, (±)-(cis)-4-Amino-1-(2-hydroxymethyl-1,3-oxathiolan-5-yl)-(1H)-pyrimidin-2-one], the “50% Cytoxicity” value with CEM cells was determined as 3 µg/mL; in the data set on JM cells, 3.5 µg/mL; in the data set on H9 cells, 8 µg/mL; in the data set on U937 cells, 15 µg/mL; with C8166 cells, 90 µg/mL.
Turning to `Nc1ccn([C@@H]2CS[C@H](CO)O2)c(=O)n1` [(−)-enantiomer, (−)-cis-4-Amino-1-(2-hydroxymethyl-1,3-oxathiolan-5-yl)-(1H)-pyrimidin-2-one], the IC50 in the data set with HIV-1 strain RF [1] is 0.2 mg/L (≈ 0.872 µM); in the data set on HIV-2 strain ROD it was 0.055 mg/L (≈ 0.24 µM); in the data set with HIV-1 strain RF [2], 0.04 mg/L (≈ 0.174 µM); in the data set on HIV-1 strain U455 it was 0.008 mg/L (≈ 0.0349 µM); in the data set on HIV-1 strain GB8 [3] it was 0.05 mg/L (≈ 0.218 µM); in the data set on HIV-1 strain RF [4] it was 0.01 mg/L (≈ 0.0436 µM). The values for the IC50 in the data set with HIV-1 strain RF [5], with HIV-1 strain GB8 [6] and in the data set on HIV-1 strain RF [7] were 0.016 mg/L (≈ 0.0698 µM), 0.016 mg/L (≈ 0.0698 µM) and 0.0004 mg/L (≈ 0.00174 µM), respectively. The “50% Cytoxicity” value was more than 100 µg/mL with CEM cells; 30 µg/mL in the data set with JM cells; more than 100 µg/mL in the data set on H9 cells; more than 100 µg/mL in the data set on U937 cells; more than 100 µg/mL in the data set on C8166 cells. The “cytotoxicity compared with the other enantiomer” value in the data set with CD4 cell lines was “considerably lower cytotoxicity”.
For the molecule `Nc1ccn([C@H]2CS[C@@H](CO)O2)c(=O)n1` [(+)-enantiomer, (2S,cis)-4-amino-1-(2-hydroxymethyl-1,3-oxathiolan-5-yl)-(1H)-pyrimidin-2-one], the IC50 with HIV-1 strain RF [1] was found to be 0.28 mg/L (≈ 1.22 µM); in the data set on HIV-2 strain ROD it was 0.045 mg/L (≈ 0.196 µM); in the data set with HIV-1 strain RF [2], 0.07 mg/L (≈ 0.305 µM); in the data set on HIV-1 strain U455, 0.006 mg/L (≈ 0.0262 µM); with HIV-1 strain GB8 [3] it was 0.03 mg/L (≈ 0.131 µM); in the data set with HIV-1 strain RF [4], 0.05 mg/L (≈ 0.218 µM). Further, the IC50 with HIV-1 strain RF [5] amounted to 0.021 mg/L (≈ 0.0916 µM); in the data set with HIV-1 strain GB8 [6] it was 0.033 mg/L (≈ 0.144 µM); in the data set on HIV-1 strain RF [7] it was 0.0008 mg/L (≈ 0.00349 µM). In addition, the “50% Cytoxicity” value was 1 µg/mL in the data set on CEM cells; 1.5 µg/mL in the data set with JM cells; 2 µg/mL with H9 cells; 4 µg/mL in the data set on U937 cells; 35 µg/mL with C8166 cells.
